Laboratory results published in US20250011330A1, “Imidazo[1,2- a]pyrazine and Imidazo[1,2- a]pyridine Based Tyrosyl-DNA Phosphodiesterase I (TDP1) Inhibitors” (The USA, As Represented by the Secretary, Department of …, priority 2021, published 2025).

Biological target: TDP2 (Homo sapiens (Human), UniProt O95551)
Assay: gel-based TDP2 fluorescence assay in vitro
Type: biochemical
Conditions: Table 7, HPLC-purified oxime leads; read-out: TDP2 IC50
Description: (§1) (TDP assay buffer: 50 mM Tris HCl, pH 7.5, 80 mM KCl, 2 mM EDTA, 1 mM DTT, 40 μg/ml BSA and 0.01% Tween-20. TDP1 (20 mg/mL in 25 mM Tris-HCl pH 7.2, 150 mM NaCl, 2 mM tris(2-carboxyethyl)phosphine) with 2 mL of well solution composed of 0.1 M MOPS/HEPES pH 7.5, 10% (w/v) PEG 8000, 20% (v/v) ethylene glycol, 0.03 M sodium fluoride, 0.03 M sodium bromide, 0.03 M sodium iodide, 0.03 M sodium bromide and sealed over […] well solution. AF647 labelling buffer: Tris-HCl (pH 7.2, 25 mM), NaCl (150 mM), and tris(2-carboxyethyl)phosphine hydrochloride (TCEP, 2 mM).)
(§2) (DNA only: Buffer+DMSO. DMSO only: Enzyme+DMSO. Drug: Enzyme+Drug, 25° C., 10 min+DNA, reaction at 25° C., 15 min.)

TDP2, sequence (O95551 whole entry, species assumed): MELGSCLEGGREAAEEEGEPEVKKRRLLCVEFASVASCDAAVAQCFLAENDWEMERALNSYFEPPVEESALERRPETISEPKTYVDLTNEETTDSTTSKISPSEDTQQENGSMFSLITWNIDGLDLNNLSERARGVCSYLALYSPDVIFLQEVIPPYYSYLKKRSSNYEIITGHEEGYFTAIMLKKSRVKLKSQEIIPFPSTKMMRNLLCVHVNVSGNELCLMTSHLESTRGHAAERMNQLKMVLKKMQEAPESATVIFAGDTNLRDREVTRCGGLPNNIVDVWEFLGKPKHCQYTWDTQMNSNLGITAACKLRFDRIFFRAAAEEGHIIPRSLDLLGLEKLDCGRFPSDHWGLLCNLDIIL

IC50 [µM]	Compound
> 100	Cc1cncc(Oc2ccc(/C=N/OCc3ccc4nc(-c5ccccc5)c(Nc5ccc(C(=O)O)cc5)n4c3)cc2)n1 [XZ707, (E)-4-((6-((((4-((6-methylpyrazin-2-yl)oxy)benzylidene)amino)oxy)methyl)-2-phenylimidazo[1,2-a]pyridin-3-yl)amino)benzoic acid]
> 100	Cc1cncc(Oc2ccc(/C=N\OCc3ccc4nc(-c5ccccc5)c(Nc5ccc(C(=O)O)cc5)n4c3)cc2)n1 [XZ713, (Z)-4-((6-((((4-((6-Methylpyrazin-2-yl)oxy)benzylidene)amino)oxy)methyl)-2-phenylimidazo[1,2-a]pyridin-3-yl)amino)benzoic acid]

Same assay, conditions: Table 10, PROTACs; read-out: TDP2 IC50

Compound	IC50 [µM]
O=C1CCC(N2C(=O)c3cccc(NCCc4cn(Cc5ccc(-c6nc7cc(-c8ccccc8)ccn7c6Nc6ccc(C(=O)O)cc6)cc5)nn4)c3C2=O)C(=O)N1 (stereo not shown) [XZ749, 4-((2-(4-((4-(2-((2-(2,6-Dioxopiperidin-3-yl)-1,3-dioxoisoindolin-4-yl)amino)ethyl)-1H-1,2,3-triazol-1-yl)methyl)phenyl)-7-phenylimidazo[1,2-a]pyridin-3-V)amino)benzoic acid]	16.8 ± 0.3

Biological target: TDP1 (Homo sapiens (Human), UniProt Q9NUW8)
Assay: TDP1 gel-based in vitro fluorescence assay
Type: biochemical
Conditions: Table 1, imidazo[1,2-a]pyridin-3-amines; read-out: IC50
Description: as §1, §2
Gel images were scanned using a Typhoon FLA 9500 scanner (GE Healthcare) and densitometric analyses were performed using the ImageQuant software (GE Healthcare). The IC50 of TDP1 inhibitors was calculated by comparing the percentage of cleavage product (5′Cy5-[…]-p-3′) to DMSO control.

TDP1, sequence (Q9NUW8 whole entry): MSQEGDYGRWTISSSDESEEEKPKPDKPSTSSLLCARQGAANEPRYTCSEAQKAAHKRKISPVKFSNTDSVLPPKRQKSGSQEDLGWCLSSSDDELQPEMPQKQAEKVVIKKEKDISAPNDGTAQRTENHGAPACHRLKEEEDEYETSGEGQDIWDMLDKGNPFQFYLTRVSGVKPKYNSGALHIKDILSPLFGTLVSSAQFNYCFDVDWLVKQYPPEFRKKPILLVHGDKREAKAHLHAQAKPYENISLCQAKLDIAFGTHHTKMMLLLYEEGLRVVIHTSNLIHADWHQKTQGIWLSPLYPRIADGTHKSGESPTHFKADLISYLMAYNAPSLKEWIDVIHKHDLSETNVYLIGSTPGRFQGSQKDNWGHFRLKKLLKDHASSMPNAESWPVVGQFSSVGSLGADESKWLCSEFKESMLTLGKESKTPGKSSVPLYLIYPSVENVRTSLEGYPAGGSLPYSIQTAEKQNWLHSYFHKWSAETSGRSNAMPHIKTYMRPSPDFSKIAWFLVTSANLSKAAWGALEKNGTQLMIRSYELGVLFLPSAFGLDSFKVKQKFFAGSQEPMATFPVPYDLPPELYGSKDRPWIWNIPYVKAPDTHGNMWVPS

Compound	IC50 [µM]
c1ccc(Nc2c(-c3ccccc3)nc3ccccn23)cc1 [Compound 6t, N,2-Diphenylimidazo[1,2-a]pyridin-3-amine]	> 100
O=C(O)c1ccc(Nc2c(-c3ccc(OCc4ccccc4)cc3)nc3ccccn23)cc1 [Compound 8c, 4-((2-(4-(Benzyloxy)phenyl)imidazo[1,2-a]pyridin-3-yl)amino)benzoic acid]	12.7
O=C(O)c1ccc2nc(-c3ccccc3)c(Nc3ccccc3)n2c1 [Compound 8k, 2-Phenyl-3-(phenylamino)imidazo[1,2-a]pyridine-6-carboxylic acid]	2.4
O=C(O)c1ccc(Nc2c(-c3ccc(C(F)(F)F)cc3)nc3ccccn23)cc1 [Compound 8d, 4-((2-(4-(Trifluoromethyl)phenyl)imidazo[1,2-a]pyridin-3-yl)amino)benzoic acid]	4.2
CS(=O)(=O)c1ccc2nc(-c3ccc(-c4ccccc4)cc3)c(Nc3ccc(C(=O)O)cc3)n2c1 [Compound 8r, 4-((2-([1,1′-Biphenyl]-4-yl)-6-(methylsulfonyl)imidazo[1,2-a]pyridin-3-yl)amino)benzoic acid]	9.95
O=C(O)c1ccc2nc(-c3ccccc3)c(Nc3ccc([N+](=O)[O-])cc3)n2c1 [Compound 8l, 3-((4-Nitrophenyl)amino)-2-phenylimidazo[1,2-a]pyridine-6-carboxylic acid]	22
O=C(O)c1ccc(Nc2c(-c3ccc(S(=O)(=O)O)cc3)nc3ccccn23)cc1 [Compound 8g, 4-((2-(4-Sulfophenyl)imidazo[1,2-a]pyridin-3-yl)amino)benzoic acid]	> 100
O=C(O)c1ccc(Nc2c(-c3ccc([N+](=O)[O-])cc3)nc3ccccn23)cc1 [Compound 8e, 4-((2-(4-Nitrophenyl)imidazo[1,2-a]pyridin-3-yl)amino)benzoic acid]	3.2
Cc1ccc(-c2nc3ccccn3c2Nc2ccc(C(=O)O)cc2)cc1 [Compound 8b, 4-((2-(p-Tolyl)imidazo[1,2-a]pyridin-3-yl)amino)benzoic acid]	14.8
O=C(O)c1ccc(Nc2c(-c3ccccc3C(=O)O)nc3ccc(C(=O)O)cn23)cc1 [Compound 8j, 2-(2-Carboxyphenyl)-3-((4-carboxyphenyl)amino)imidazo[1,2-a]pyridine-6-carboxylic acid]	> 100
O=C(O)c1ccc(Nc2c(-c3ccc(C(=O)O)cc3)nc3ccccn23)cc1 [Compound 8h, 4-(3-((4-Carboxyphenyl)amino)imidazo[1,2-a]pyridin-2-yl)benzoic acid]	> 100
O=C(O)c1ccc(Nc2c(-c3ccc(O)cc3)nc3ccccn23)cc1 [Compound 8f, 4-((2-(4-Hydroxyphenyl)imidazo[1,2-a]pyridin-3-yl)amino)benzoic acid]	> 100
O=C(O)c1ccc(-c2nc3ccccn3c2Nc2ccccc2)cc1 [Compound 8i, 4-(3-(Phenylamino)imidazo[1,2-a]pyridin-2-yl)benzoic acid]	40.1

Same assay, conditions: Table 2, imidazo[1,2-a]pyrazin-3-amine core; read-out: IC50

IC50 [µM]	Compound
> 1000	O=C(O)c1ccc(Nc2c(-c3ccc(F)cc3)nc3cnccn23)cc1 [Compound 7′z, 4-((2-(4-Fluorophenyl)imidazo[1,2-a]pyrazin-3-yl)amino)benzoic acid]
> 1000	O=C(O)c1cccc(Nc2c(-c3ccccc3)nc3cnccn23)c1 [Compound 71]
> 1000	COC(=O)c1cccc(Nc2c(-c3ccccc3O)nc3cnccn23)c1 [Compound 7j]
2900	CN(C)c1ccc(-c2nc3cnccn3c2Nc2cccc(C(=O)O)c2)cc1 [Compound 7q]
> 1000	O=C(O)c1ccc(Nc2c(-c3cccc(Br)c3)nc3cnccn23)cc1 [Compound 7y]
> 1000	O=C(O)c1ccccc1Nc1c(-c2ccccc2O)nc2cnccn12 [Compound 7′s, 2-((2-(2-Hydroxyphenyl)imidazo[1,2-a]pyrazin-3-yl)amino)benzoic acid]
> 1000	CN(C)c1ccc(-c2nc3cnccn3c2Nc2ccc(C(=O)O)cc2)cc1 [Compound 7v]
> 1000	CCOC(=O)c1cccc(Nc2c(-c3ccc(C(=O)O)cc3)nc3cnccn23)c1 [Compound 7r, 4-(3-((3-(ethoxycarbonyl)phenyl)amino)imidazo[1,2-a]pyrazin-2-yl)benzoic acid]
> 1000	O=C(O)c1ccc(Nc2c(-c3cccc(Cl)c3)nc3cnccn23)cc1 [Compound 7x]
942	O=C(O)c1cccc(Nc2c(-c3ccc(N4CCOCC4)cc3)nc3cnccn23)c1 [Compound 7p]
216	O=C(O)c1cccc(Nc2c(-c3ccc(O)cc3)nc3cnccn23)c1 [Compound 7o]
> 1000	COC(=O)c1ccccc1Nc1c(-c2ccccc2O)nc2cnccn12 [Compound 7k]
370	O=C(O)c1cccc(Nc2c(-c3ccccc3O)nc3cnccn23)c1 [Compound 7m]
> 1000	CNC(=O)c1ccc(Nc2c(-c3ccccc3)nc3cnccn23)cc1 [Compound 7i]
> 1000	O=C(O)c1ccc(Nc2c(-c3ccc(Cl)cc3)nc3cnccn23)cc1 [Compound 7w]
> 1000	O=C(O)c1ccc(-c2nc3cnccn3c2Nc2cccc(C(=O)O)c2)cc1 [Compound 7′t, 3-((2-(4-Carboxyphenyl)imidazo[1,2-a]pyrazin-3-yl)amino)benzoic acid]
2050	O=C(O)c1cccc(Nc2c(-c3cccc(O)c3)nc3cnccn23)c1 [Compound 7n]

Continued, compound first:

Compound	IC50 [µM]
O=C(O)c1ccc(Nc2c(-c3ccccc3)nc3cnccn23)c(O)c1 [Compound 7f]	18
COc1ccc(-c2nc3cnccn3c2Nc2ccc(C(N)=O)cc2)cc1 [Compound 7c]	> 1000
Cc1ccc(-c2nc3cnccn3c2Nc2ccc(C(N)=O)cc2)cc1 [Compound 7h]	> 1000
COc1ccccc1Nc1c(-c2ccc(C(=O)O)cc2)nc2cnccn12 [Compound 7g]	2300
O=C(O)c1ccc(Nc2c(-c3cccc(O)c3)nc3cnccn23)cc1 [Compound 7d]	127
CCOC(=O)c1ccc(Nc2c(-c3ccccc3O)nc3cnccn23)cc1 [Compound 7a]	> 1000
O=C(O)c1ccc(Nc2c(-c3ccc(O)cc3)nc3cnccn23)cc1 [Compound 7e]	20

Same assay, conditions: Table 3, values in brackets (footnote vi); read-out: TDP1 IC50 (μM), separated data from previous experiments

Compound	IC50 [µM]
Cc1ccc(-c2nc3cnccn3c2Nc2cccc(C(=O)O)c2)cc1 [Compound M8]	233

Same assay, conditions: Table 7, HPLC-purified oxime leads; read-out: TDP1 IC50

IC50 [µM]	Compound
> 100	Cc1cncc(Oc2ccc(/C=N/OCc3ccc4nc(-c5ccccc5)c(Nc5ccc(C(=O)O)cc5)n4c3)cc2)n1 [XZ707, (E)-4-((6-((((4-((6-methylpyrazin-2-yl)oxy)benzylidene)amino)oxy)methyl)-2-phenylimidazo[1,2-a]pyridin-3-yl)amino)benzoic acid]

Same assay, conditions: Table 10, PROTACs; read-out: TDP1 IC50

Compound	IC50 [µM]
O=C1CCC(N2C(=O)c3cccc(NCCc4cn(Cc5ccc(-c6nc7cc(-c8ccccc8)ccn7c6Nc6ccc(C(=O)O)cc6)cc5)nn4)c3C2=O)C(=O)N1 (stereo not shown) [XZ749, 4-((2-(4-((4-(2-((2-(2,6-Dioxopiperidin-3-yl)-1,3-dioxoisoindolin-4-yl)amino)ethyl)-1H-1,2,3-triazol-1-yl)methyl)phenyl)-7-phenylimidazo[1,2-a]pyridin-3-V)amino)benzoic acid]	12.3 ± 1.5
